Source: patent US7666901B2, “Analogs of 17-hydroxywortmannin as PI3K inhibitors” (Wyeth, priority 2004, dated 2010)

Columns and labels:
[1] = system: MDA468 (human breast cancer cell); experiment: Cell proliferation (MTS) assay, MDA468; assay type: cell-based; conditions: three days treatment
Method in brief: (§1)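 Cells plated at about 3000 per well in RPMI-1640/10% FBS were dosed with compound one day later. Viability was read by MTS conversion (absorbance 490 nm, 1–2 h) three days after treatment began. Effect is expressed as percent of vehicle-treated growth on the same plate.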

[2] = system: LNCaP (human prostate carcinoma); experiment: Cell proliferation (MTS) assay, LNCaP; assay type: cell-based; conditions: three days treatment
Method in brief: as §1

## COC[C@H]1OC(=O)/C(=C/N(CCO)C(C)(C)C)C2=C(O)C(=O)C3=C([C@H](OC(C)=O)C[C@@]4(C)C3CC[C@@H]4O)[C@]21C (stereo partly drawn) [Compound 4, (1E,4S,4aR,5R,6aS,7S)-1-{[tert-butyl(2-hydroxyethyl)amino]methylene}-7,11-dihydroxy-4-(methoxymethyl)-4a,6a-dimethyl-2,10-dioxo-1,2,4,4a,5,6,6a,7,8,9,9a,10-dodecahydroindeno[4,5-h]isochromen-5-yl acetate]
[1]; Table 1
  MDA468 IC50: 0.3 µg/mL
[1]; Table 2
  MDA468 IC50: 0.51 µg/mL
[2]; Table 1
  LNCaP IC50: 0.09 µg/mL
[2]; Table 2
  LNCaP IC50: 0.05 µg/mL
